Reference: patent publication US6201001A, “Imidazole antiproliferative agents” (Abbott Laboratories, priority 1999, dated 2001)

Experiments:
[1] = test system: human colon adenocarcinoma, MDR positive (HCT-15) cells; experiment: 48-hour cellular proliferation assay, HCT-15 cells (sulforhodamine); format: cell-based; details: HCT-15, 48-hour
Procedure: (§1) Compounds of this invention were tested in a 48-hour cellular proliferation assay which uses human colon adenocarcinoma, MDR positive (HCT-15) cells, and human lung large cell carcinoma, MDR negative (NCI-H460) cells, in the 96-well microtitre format described in Skehan P., et al. New Colorimetric Cytotoxicity Assay for Anticancer Drug Screening. 1990, J. Natl. Cancer Inst. 82:1107-1112, hereby incorporated by reference. Briefly, the wells of a microtitre plate were charged sequentially with cultured cells and compounds of the invention (1.0×10^-4 to 1.0×10^-11 M in 10% DMSO prepared by dissolving compounds of the invention in DMSO and adding 11 μL of the DMSO solution to 100 μL of culture medium for a final DMSO concentration of 10%). Two of the following controls were also present in each microtitre plate: a solvent (DMSO) control without drug that yielded a 0% inhibition level and a trichloroacetic acid-treated well that yielded a 100% inhibition level. The cells were grown in culture (37° C., 5% CO2 atmosphere) for 48 hours then fixed by the addition of trichloroacetic acid. The wells were stained with sulforhodamine, washed with 1% acetic acid, and treated with 0.01M tris buffer (100 μL) to solubilize the adherent dye. The absorbance of the dye solution was measured with a Molecular Devices SpectraMax340 plate reader. The percent inhibition values were obtained by calculating the proportional response of the experimental values to the absorbance values of the controls.

[2] = test system: human lung large cell carcinoma, MDR negative (NCI-H460) cells; experiment: 48-hour cellular proliferation assay, NCI-H460 cells (sulforhodamine); format: cell-based; details: NCI-H460, 48-hour
Procedure: as §1

| IC50 [1] [nM] | IC50 [2] [nM] | Structure (SMILES) |
| --- | --- | --- |
| 220 | 170 | COc1ccc(-c2c(-c3cc(OC)c(OC)c(OC)c3)ncn2C)cc1N [Example 1, 2-methoxy-5-(1-methyl-4-(3,4,5-trimethoxyphenyl)-1H-imidazol-5-yl)phenylamine] |
| 79 | 34 | COc1ccc(-c2ncn(C)c2-c2cc(OC)c(OC)c(OC)c2)cc1N [Example 2, 2-methoxy-5-(1-methyl-5-(3,4,5-trimethoxyphenyl)-1H-imidazol-4-yl)phenylamine] |
| 250 | 400 | COc1cc(-c2ncn(C)c2-c2ccc(N(C)C)cc2)cc(OC)c1OC [Example 4, N,N-dimethyl-4-[1-methyl-4-(3,4,5-trimethoxyphenyl)-1H-imidazol-5-yl]aniline] |

| Structure (SMILES) | IC50 [1] [nM] | IC50 [2] [nM] |
| --- | --- | --- |
| COc1ccc(-c2c(-c3cc(OC)c(OC)c(OC)c3)ncn2C)cc1F [Example 3, 5-(3-fluoro-4-methoxyphenyl)-1-methyl-4-(3,4,5-trimethoxyphenyl)-1H-imidazole] | 850 | 920 |
